Measurements from ChEMBL document CHEMBL1201862, “PubChem BioAssay data set” (2004).
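Tested at 5 concentrations; 48 h exposure; 96-well plates; endpoints linearly interpolated, else capped at highest concentration. At the GI50, growth is halved.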 Calls of active or inactive are those of the source. No stated cut-off is given here; in the data, active = GI50 up to about 1.1 µM and inactive = higher.

Tests used:
Test in all cases: NCI tumour cell line growth inhibition, 48 h
[1] = test system: SN12C
[2] = test system: M14
[3] = test system: U-251
[4] = test system: EKVX
[5] = test system: KM12
[6] = test system: DU-145
[7] = test system: T47D
[8] = test system: UACC-257
[9] = test system: HT-29
[10] = test system: MOLT-4
[11] = test system: HL-60
[12] = test system: SF-539
[13] = test system: IGROV-1
[14] = test system: CCRF-CEM
[15] = test system: CAKI-1
[16] = test system: MCF7
[17] = test system: Hs-578T
[18] = test system: SR
[19] = test system: NCI-H460
[20] = test system: Malme-3M
[21] = test system: HOP-62
[22] = test system: UACC-62
[23] = test system: LOX IMVI
[24] = test system: 786-0
[25] = test system: RPMI-8226
[26] = test system: K562
[27] = test system: UO-31
[28] = test system: MDA-MB-231
[29] = test system: HOP-92
[30] = test system: BT-549
[31] = test system: HCT-15
[32] = test system: COLO 205
[33] = test system: SK-MEL-28
[34] = test system: SK-OV-3
[35] = test system: OVCAR-8
[36] = test system: MDA-N
[37] = test system: HCC 2998
[38] = test system: NCI/ADR-RES
[39] = test system: OVCAR-4
[40] = test system: TK-10
[41] = test system: SF-268
[42] = test system: SNB-75
[43] = test system: NCI-H226
[44] = test system: HCT-116
[45] = test system: ACHN
[46] = test system: A549
[47] = test system: NCI-H23
[48] = test system: SW-620
[49] = test system: RXF 393
[50] = test system: SK-MEL-2
[51] = test system: SNB-19
[52] = test system: OVCAR-3
[53] = test system: MDA-MB-435
[54] = test system: OVCAR-5
[55] = test system: A498
[56] = test system: SK-MEL-5
[57] = test system: PC-3
[58] = test system: SF-295
[59] = test system: NCI-H522

`Cc1ccccc1Nc1nc(NNC(=O)Cc2ccccc2)nc(NNC(=O)c2ccncc2)n1` was tested, and the GI50 [1] was > 10 µM (inactive), the GI50 [2] was > 10 µM (inactive) and the GI50 [3] was > 10 µM (inactive). For the same compound, the GI50 [4] was > 10 µM (inactive), the GI50 [5] was > 10 µM (inactive) and the GI50 [6] was > 10 µM (inactive). The GI50 [7] was > 10 µM (inactive), the GI50 [8] was > 10 µM (inactive) and the GI50 [9] was > 10 µM (inactive). The GI50 [10] was > 10 µM (inactive), the GI50 [11] was > 10 µM (inactive) and the GI50 [12] was > 10 µM (inactive). The GI50 [13] was > 10 µM (inactive), the GI50 [14] was > 10 µM (inactive) and the GI50 [15] was > 10 µM (inactive). For the same compound, the GI50 [16] was > 10 µM (inactive), the GI50 [17] was > 10 µM (inactive) and the GI50 [18] was > 10 µM (inactive). The GI50 [19] was > 10 µM (inactive), the GI50 [20] was > 10 µM (inactive) and the GI50 [21] was > 10 µM (inactive). For the same compound, the GI50 [22] was > 10 µM (inactive), the GI50 [23] was > 10 µM (inactive) and the GI50 [24] was > 10 µM (inactive). The GI50 [25] was > 10 µM (inactive), the GI50 [26] was > 10 µM (inactive) and the GI50 [27] was > 10 µM (inactive). The GI50 [28] was > 10 µM (inactive), the GI50 [29] was > 10 µM (inactive) and the GI50 [30] was > 10 µM (inactive). The GI50 [31] was > 10 µM, the GI50 [32] was > 10 µM (inactive) and the GI50 [33] was > 10 µM (inactive). For the same compound, the GI50 [34] was > 10 µM (inactive), the GI50 [35] was > 10 µM (inactive) and the GI50 [36] was > 10 µM (inactive). The GI50 [37] was > 10 µM (inactive), the GI50 [38] was > 10 µM (inactive) and the GI50 [39] was > 10 µM (inactive). The GI50 [40] was > 10 µM (inactive), the GI50 [41] was > 10 µM (inactive) and the GI50 [42] was > 10 µM (inactive).

With `CC(C)(C)c1cc(C(=O)/C=C/c2ccc3c(c2)CCO3)cc(C(C)(C)C)c1O` the GI50 [1] was 2.99 µM (inactive), the GI50 [2] was 1.17 µM (inactive) and the GI50 [3] was 0.94 µM (active). For the same compound, the GI50 [4] was 0.729 µM (active), the GI50 [5] was 0.49 µM (active) and the GI50 [6] was 1.39 µM (inactive). The GI50 [7] was 4.86 µM (inactive), the GI50 [43] was 2.24 µM (inactive) and the GI50 [8] was 0.792 µM (active). The GI50 [9] was 1.04 µM (active), the GI50 [10] was 2.42 µM (inactive) and the GI50 [11] was 0.951 µM (active). For the same compound, the GI50 [44] was 1.2 µM (inactive), the GI50 [45] was 1.69 µM (inactive) and the GI50 [46] was 1.63 µM (inactive). For the same compound, the GI50 [47] was 1.14 µM (inactive), the GI50 [12] was 0.619 µM (active) and the GI50 [48] was 1.13 µM (inactive). The GI50 [13] was 2.29 µM (inactive), the GI50 [14] was 1.07 µM (active) and the GI50 [49] was 0.216 µM (active). For the same compound, the GI50 [15] was 0.724 µM (active), the GI50 [16] was 1.23 µM (inactive) and the GI50 [17] was 1.32 µM (inactive). The GI50 [18] was 0.548 µM (active), the GI50 [19] was 0.76 µM (active) and the GI50 [50] was 1.29 µM (inactive). The GI50 [20] was > 100 µM (inactive), the GI50 [21] was 4.15 µM (inactive) and the GI50 [22] was 1.16 µM (inactive). The GI50 [23] was 1.57 µM (inactive), the GI50 [24] was 1.12 µM (active) and the GI50 [25] was 0.984 µM (active). The GI50 [26] was 0.938 µM (active), the GI50 [51] was 2.94 µM (inactive) and the GI50 [27] was 1.2 µM (inactive). For the same compound, the GI50 [52] was 5.07 µM (inactive), the GI50 [28] was 2.28 µM (inactive) and the GI50 [29] was 16.2 µM (inactive). For the same compound, the GI50 [30] was 1.8 µM (inactive), the GI50 [31] was 1.04 µM and the GI50 [32] was 0.701 µM (active). The GI50 [53] was 0.327 µM (active), the GI50 [33] was > 83 µM (inactive) and the GI50 [34] was 1.64 µM (inactive). For the same compound, the GI50 [35] was 1.63 µM (inactive), the GI50 [54] was 2.39 µM (inactive) and the GI50 [37] was 1.89 µM (inactive). The GI50 [38] was 0.614 µM (active), the GI50 [39] was 0.869 µM (active) and the GI50 [55] was 1.12 µM (active). For the same compound, the GI50 [56] was 0.908 µM (active), the GI50 [40] was 1.31 µM (inactive) and the GI50 [57] was 0.891 µM (active). The GI50 [58] was 1.69 µM (inactive), the GI50 [59] was 0.323 µM (active) and the GI50 [41] was 2.58 µM (inactive). For the same compound, the GI50 [42] was 0.733 µM (active).

In the case of `COC(=O)C(Cc1cn(C(C)=O)c2ccccc12)P(=O)(OC)OC` (stereo not given), the GI50 [1] is reported as > 100 µM (inactive), the GI50 [2] is reported as > 100 µM (inactive) and the GI50 [3] is reported as > 100 µM (inactive). The GI50 [5] was > 100 µM (inactive), the GI50 [6] was > 100 µM (inactive) and the GI50 [7] was > 100 µM (inactive). The GI50 [43] was > 100 µM (inactive), the GI50 [8] was > 100 µM (inactive) and the GI50 [9] was > 100 µM (inactive). The GI50 [11] was > 100 µM (inactive), the GI50 [44] was > 100 µM (inactive) and the GI50 [45] was > 100 µM (inactive). The GI50 [46] was > 100 µM (inactive), the GI50 [47] was > 100 µM (inactive) and the GI50 [12] was > 100 µM (inactive). For the same compound, the GI50 [48] was > 100 µM (inactive), the GI50 [13] was > 100 µM (inactive) and the GI50 [14] was > 100 µM (inactive). For the same compound, the GI50 [49] was > 100 µM (inactive), the GI50 [15] was > 100 µM (inactive) and the GI50 [16] was 20.7 µM (inactive). The GI50 [18] was > 100 µM (inactive), the GI50 [19] was > 100 µM (inactive) and the GI50 [22] was > 100 µM (inactive). For the same compound, the GI50 [25] was > 100 µM (inactive), the GI50 [26] was > 100 µM (inactive) and the GI50 [51] was > 100 µM (inactive). For the same compound, the GI50 [27] was 72.9 µM (inactive), the GI50 [52] was > 100 µM (inactive) and the GI50 [28] was > 100 µM (inactive). The GI50 [29] was > 100 µM (inactive), the GI50 [30] was > 100 µM (inactive) and the GI50 [31] was > 100 µM. The GI50 [32] was > 100 µM (inactive), the GI50 [53] was > 100 µM (inactive) and the GI50 [33] was > 100 µM (inactive). The GI50 [35] was > 100 µM (inactive), the GI50 [54] was 95.3 µM (inactive) and the GI50 [36] was > 100 µM (inactive). The GI50 [37] was > 100 µM (inactive), the GI50 [38] was > 100 µM (inactive) and the GI50 [39] was > 100 µM (inactive). The GI50 [55] was > 100 µM (inactive), the GI50 [56] was > 100 µM (inactive) and the GI50 [40] was > 100 µM (inactive). The GI50 [57] was > 100 µM (inactive), the GI50 [58] was > 100 µM (inactive) and the GI50 [59] was > 100 µM (inactive). For the same compound, the GI50 [41] was > 100 µM (inactive) and the GI50 [42] was 60.3 µM (inactive).
